Reference: ChEMBL document CHEMBL1136094, “Novel, potent and selective cyclin D1/CDK4 inhibitors: indolo[6,7-a]pyrrolo[3,4-c]carbazoles” (Bioorg Med Chem Lett, 2003)

What was measured:
[1] = tested on: HCT-116; assay: In vitro antiproliferative activity against human carcinoma cell line HCT116 (colon); format: functional, cell-based
[2] = tested on: NCI-H460; assay: In vitro antiproliferative activity against human carcinoma cell line H460 (lung); format: functional, cell-based
[3] = target: T1, Cyclin-dependent kinase 4/cyclin D1 (Homo sapiens, UniProt P11802); assay: Inhibitory activity against Cyclin D1-cyclin-dependent kinase 4 in enzymatic assay by measuring phosphorylation of RbING; format: protein-complex assay
[4] = target: T1, Cyclin-dependent kinase 4/cyclin D1; assay: Inhibitory activity against Cyclin D1-cyclin-dependent kinase 4 in enzymatic assay by measuring phosphorylation of Rb21; format: protein-complex assay
[5] = target: Cyclin-dependent kinase 2/cyclin E (Homo sapiens, UniProt P24941); assay: Inhibitory activity against Cyclin E-cyclin-dependent kinase 2 in enzymatic assay by measuring phosphorylation of RbING; format: protein-complex assay
[6] = target: CaM kinase II (Homo sapiens, UniProt Q13557+Q13555+Q13554+Q9UQM7); assay: Inhibitory activity against Calcium/calmodulin-dependent protein kinase type II; format: protein assay
[7] = target: cAMP-dependent protein kinase (PKA) (Homo sapiens, UniProt P22694+P17612+P22612); assay: Inhibitory activity against Protein kinase A (Histone); format: protein assay

T1 sequence (P11802 whole entry): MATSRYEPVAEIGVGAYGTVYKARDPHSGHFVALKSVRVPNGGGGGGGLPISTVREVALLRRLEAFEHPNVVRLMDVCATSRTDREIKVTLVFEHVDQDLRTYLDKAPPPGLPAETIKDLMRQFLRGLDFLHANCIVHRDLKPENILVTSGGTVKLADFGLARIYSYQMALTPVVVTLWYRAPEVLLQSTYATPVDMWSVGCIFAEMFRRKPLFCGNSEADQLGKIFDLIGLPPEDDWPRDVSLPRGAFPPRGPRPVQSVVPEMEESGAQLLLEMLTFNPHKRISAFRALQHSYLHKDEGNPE
T1 sequence (P24385 whole entry, further chain): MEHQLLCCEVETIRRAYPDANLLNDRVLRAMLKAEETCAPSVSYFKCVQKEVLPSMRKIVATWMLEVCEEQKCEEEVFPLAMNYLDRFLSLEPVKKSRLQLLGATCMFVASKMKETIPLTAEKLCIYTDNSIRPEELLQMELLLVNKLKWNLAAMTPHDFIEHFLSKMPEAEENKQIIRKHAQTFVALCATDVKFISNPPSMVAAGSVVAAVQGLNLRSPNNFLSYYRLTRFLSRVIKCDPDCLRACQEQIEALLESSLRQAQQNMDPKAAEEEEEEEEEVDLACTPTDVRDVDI

Cn1ccc2ccc3c4[nH]c5c(CCCN6CCOCC6)cccc5c4c4c(c3c21)C(=O)NC4=O
IC50 [1]: 2820 nM
IC50 [2]: 1680 nM
IC50 [3]: 56 nM
IC50 [4]: 43 nM
IC50 [5]: 1330 nM
IC50 [6]: 516 nM
IC50 [7]: > 20000 nM

COc1ccc2c3c4c(c5c(ccc6ccn(C)c65)c3n(CCN3CCC[C@H]3CO)c2c1)C(=O)NC4=O
IC50 [1]: 2690 nM
IC50 [2]: 3800 nM
IC50 [3]: 84 nM
IC50 [4]: 23 nM
IC50 [5]: 942 nM
IC50 [6]: 6120 nM
IC50 [7]: > 20000 nM

Cn1ccc2ccc3c4[nH]c5ccc(Br)cc5c4c4c(c3c21)C(=O)NC4=O
IC50 [3]: > 2000 nM

O=C1NC(=O)c2c1c1c3ccccc3[nH]c1c1[nH]c3ccccc3c21 [STAUROSPORINE AGLYCON]
IC50 [1]: 850 nM
IC50 [2]: 590 nM
IC50 [3]: 140 nM
IC50 [5]: 897 nM

Cn1ccc2ccc3c4[nH]c5c(CCN6CCC[C@H]6CO)cccc5c4c4c(c3c21)C(=O)NC4=O
IC50 [1]: 420 nM
IC50 [2]: 210 nM
IC50 [3]: 39 nM
IC50 [4]: 23 nM
IC50 [5]: 685 nM
IC50 [6]: 90 nM
IC50 [7]: 4580 nM

Cc1ccc2[nH]c3c4ccc5ccn(C)c5c4c4c(c3c2c1)C(=O)NC4=O
IC50 [1]: 2870 nM
IC50 [2]: 3350 nM
IC50 [3]: 393 nM
IC50 [4]: 407 nM
IC50 [5]: 1070 nM
IC50 [7]: 4060 nM

COc1cccc2c1[nH]c1c3ccc4ccn(C)c4c3c3c(c21)C(=O)NC3=O
IC50 [1]: 1000 nM
IC50 [2]: 2710 nM
IC50 [3]: 62 nM
IC50 [4]: 40 nM
IC50 [5]: > 2000 nM
IC50 [7]: > 20000 nM

Cn1ccc2ccc3c4[nH]c5ccc(C(F)(F)F)cc5c4c4c(c3c21)C(=O)NC4=O
IC50 [1]: 7040 nM
IC50 [2]: 7850 nM
IC50 [3]: > 2000 nM

Cc1ccc2c(c1)[nH]c1c3ccc4ccn(C)c4c3c3c(c21)C(=O)NC3=O
IC50 [1]: 3840 nM
IC50 [2]: 3410 nM
IC50 [3]: 48 nM
IC50 [4]: 18 nM
IC50 [5]: 320 nM
IC50 [7]: > 20000 nM

Cn1ccc2ccc3c4[nH]c5c(CCCNCCO)cccc5c4c4c(c3c21)C(=O)NC4=O
IC50 [1]: 770 nM
IC50 [2]: 1100 nM
IC50 [3]: 40 nM
IC50 [4]: 19 nM
IC50 [5]: 567 nM
IC50 [6]: 266 nM
IC50 [7]: 8310 nM

COc1cccc2[nH]c3c4ccc5ccn(C)c5c4c4c(c3c12)C(=O)NC4=O
IC50 [1]: > 10000 nM
IC50 [2]: > 10000 nM
IC50 [3]: > 2000 nM

CCn1ccc2ccc3c(c4c(c5c6ccccc6n(CCCO)c35)C(=O)NC4=O)c21
IC50 [1]: 1200 nM
IC50 [2]: 1770 nM
IC50 [3]: 134 nM
IC50 [4]: 90 nM
IC50 [5]: 400 nM
IC50 [7]: 5310 nM

Cn1ccc2ccc3c4[nH]c5cc(C(F)(F)F)ccc5c4c4c(c3c21)C(=O)NC4=O
IC50 [1]: > 10000 nM
IC50 [2]: 3510 nM
IC50 [3]: 76 nM
IC50 [4]: 9 nM
IC50 [5]: 225 nM
IC50 [7]: > 20000 nM

Cn1ccc2ccc3c4[nH]c5cccc(Br)c5c4c4c(c3c21)C(=O)NC4=O
IC50 [1]: 4710 nM
IC50 [2]: 3520 nM
IC50 [3]: 171 nM
IC50 [4]: 136 nM
IC50 [7]: > 20000 nM

Cc1cc2ccn(C)c2c2c3c(c4c5ccc(F)cc5[nH]c4c12)C(=O)NC3=O
IC50 [1]: 580 nM
IC50 [2]: 1020 nM
IC50 [3]: 50 nM
IC50 [4]: 6 nM
IC50 [5]: 23 nM
IC50 [7]: > 20000 nM

Cn1ccc2ccc3c4[nH]c5cc(F)ccc5c4c4c(c3c21)C(=O)NC4=O
IC50 [1]: > 10000 nM
IC50 [2]: > 10000 nM
IC50 [3]: 38 nM
IC50 [4]: 11 nM
IC50 [5]: 9 nM
IC50 [7]: > 20000 nM

COc1ccc2c(c1)[nH]c1c3ccc4cc[nH]c4c3c3c(c21)C(=O)NC3=O
IC50 [1]: 2160 nM
IC50 [2]: 1920 nM
IC50 [3]: 67 nM
IC50 [4]: 36 nM
IC50 [5]: 125 nM
IC50 [7]: 11400 nM

Cn1ccc2ccc3c4[nH]c5cc(C#N)ccc5c4c4c(c3c21)C(=O)NC4=O
IC50 [1]: > 10000 nM
IC50 [2]: > 10000 nM
IC50 [3]: 29 nM
IC50 [4]: 11 nM
IC50 [5]: 10 nM
IC50 [7]: > 20000 nM

Cn1ccc2ccc3c4[nH]c5cc(Br)ccc5c4c4c(c3c21)C(=O)NC4=O
IC50 [1]: 1080 nM
IC50 [2]: 720 nM
IC50 [3]: 38 nM
IC50 [4]: < 13 nM
IC50 [5]: 75 nM
IC50 [7]: > 20000 nM

CCOc1ccc2c(c1)[nH]c1c3ccc4ccn(C)c4c3c3c(c21)C(=O)NC3=O
IC50 [1]: 2350 nM
IC50 [2]: 3200 nM
IC50 [3]: 44 nM
IC50 [4]: 10 nM
IC50 [5]: 324 nM
IC50 [7]: > 20000 nM

CCn1ccc2ccc3c4[nH]c5ccccc5c4c4c(c3c21)C(=O)NC4=O
IC50 [1]: 4520 nM
IC50 [2]: > 10000 nM
IC50 [3]: 59 nM
IC50 [4]: 19 nM
IC50 [7]: > 2000 nM

O=C1NC(=O)c2c1c1c(ccc3cc[nH]c31)c1[nH]c3ccccc3c21
IC50 [1]: 1440 nM
IC50 [2]: 1430 nM
IC50 [3]: 36 nM
IC50 [4]: 22 nM
IC50 [5]: 64 nM
IC50 [7]: > 2000 nM

Cn1ccc2cc(F)c3c4[nH]c5ccccc5c4c4c(c3c21)C(=O)NC4=O
IC50 [1]: 3490 nM
IC50 [2]: 2900 nM
IC50 [3]: 67 nM
IC50 [4]: 16 nM
IC50 [5]: 86 nM
IC50 [7]: > 20000 nM

Cc1cc2ccn(C)c2c2c3c(c4c5ccccc5n(CCCO)c4c12)C(=O)NC3=O
IC50 [1]: 3850 nM
IC50 [2]: 4750 nM
IC50 [3]: 673 nM

CCc1ccc2c(c1)[nH]c1c3ccc4ccn(C)c4c3c3c(c21)C(=O)NC3=O
IC50 [1]: 3510 nM
IC50 [2]: 7490 nM
IC50 [3]: 101 nM
IC50 [4]: 22 nM
IC50 [7]: > 20000 nM

Cc1cc2ccn(C)c2c2c3c(c4c5ccccc5n(CCCCO)c4c12)C(=O)NC3=O
IC50 [1]: > 10000 nM
IC50 [2]: > 10000 nM
IC50 [3]: > 2000 nM
IC50 [7]: 11700 nM

Cn1ccc2ccc3c4[nH]c5c(CCCO)cccc5c4c4c(c3c21)C(=O)NC4=O
IC50 [1]: 3020 nM
IC50 [2]: 2350 nM
IC50 [3]: 168 nM
IC50 [4]: 40 nM
IC50 [5]: 558 nM
IC50 [7]: > 20000 nM

O=C1NC(=O)c2c1c1c(ccc3cc[nH]c31)c1[nH]c3cc(OCc4ccccc4)ccc3c21
IC50 [1]: > 10000 nM
IC50 [2]: > 10000 nM
IC50 [3]: 187 nM
IC50 [4]: 378 nM

Cn1ccc2ccc3c4[nH]c5c(Br)cccc5c4c4c(c3c21)C(=O)NC4=O
IC50 [1]: 17100 nM
IC50 [2]: 13800 nM
IC50 [3]: 93 nM

Cc1cc2ccn(C)c2c2c3c(c4c5ccccc5n(C)c4c12)C(=O)NC3=O
IC50 [1]: 4700 nM
IC50 [2]: > 10000 nM
IC50 [3]: 92 nM
IC50 [4]: 45 nM
IC50 [5]: 267 nM
IC50 [7]: 3900 nM

Cn1ccc2ccc3c4[nH]c5cccc(CO)c5c4c4c(c3c21)C(=O)NC4=O
IC50 [1]: > 10000 nM
IC50 [2]: > 10000 nM
IC50 [3]: 155 nM
IC50 [4]: 216 nM
IC50 [5]: > 2000 nM
IC50 [7]: > 20000 nM

Cn1ccc2ccc3c4[nH]c5cc(OCc6ccccc6)ccc5c4c4c(c3c21)C(=O)NC4=O
IC50 [1]: 6520 nM
IC50 [2]: > 10000 nM
IC50 [3]: 123 nM
IC50 [4]: 25 nM
IC50 [5]: 328 nM
IC50 [7]: 3290 nM

COc1ccc2c(c1)[nH]c1c2c2c(c3c1c(C)cc1ccn(C)c13)C(=O)NC2=O
IC50 [1]: 1430 nM
IC50 [2]: 1300 nM
IC50 [3]: 42 nM
IC50 [4]: 7 nM
IC50 [5]: 57 nM
IC50 [7]: > 20000 nM

Cn1ccc2ccc3c4[nH]c5cccc(F)c5c4c4c(c3c21)C(=O)NC4=O
IC50 [1]: > 2000 nM
IC50 [2]: > 10000 nM
IC50 [3]: 71 nM
IC50 [4]: 81 nM
IC50 [5]: > 2000 nM
IC50 [7]: > 20000 nM

Cc1cc2ccn(C)c2c2c3c(c4c5ccc(C(F)(F)F)cc5[nH]c4c12)C(=O)NC3=O
IC50 [1]: 8780 nM
IC50 [2]: 2420 nM
IC50 [3]: 92 nM
IC50 [4]: 25 nM
IC50 [5]: > 2000 nM
IC50 [7]: > 20000 nM

Cc1cc2ccn(C)c2c2c3c(c4c5ccccc5[nH]c4c12)C(=O)NC3=O
IC50 [1]: 1980 nM
IC50 [2]: 2260 nM
IC50 [3]: 28 nM
IC50 [4]: 2 nM
IC50 [5]: 70 nM
IC50 [7]: > 20000 nM

Cn1ccc2cc(F)c3c(c4c(c5c6ccccc6n(CCCO)c53)C(=O)NC4=O)c21
IC50 [1]: 2390 nM
IC50 [2]: 2480 nM
IC50 [3]: 346 nM
IC50 [4]: 448 nM

Cn1ccc2ccc3c(c4c(c5c6ccccc6n(CCCO)c35)C(=O)NC4=O)c21
IC50 [1]: 1360 nM
IC50 [2]: 1130 nM
IC50 [3]: 96 nM
IC50 [4]: 42 nM
IC50 [5]: 67 nM
IC50 [7]: > 2000 nM

COc1ccc2[nH]c3c4ccc5ccn(C)c5c4c4c(c3c2c1)C(=O)NC4=O
IC50 [1]: > 10000 nM
IC50 [2]: > 10000 nM
IC50 [3]: 519 nM
IC50 [4]: 680 nM
IC50 [5]: > 2000 nM
IC50 [7]: > 20000 nM

O=C1NC(=O)c2c1c1c(ccc3cc[nH]c31)c1[nH]c3cc(O)ccc3c21
IC50 [1]: 170 nM
IC50 [2]: 230 nM
IC50 [3]: 37 nM
IC50 [4]: 17 nM
IC50 [5]: 6 nM
IC50 [7]: 949 nM

Cn1ccc2ccc3c4[nH]c5ccc(F)cc5c4c4c(c3c21)C(=O)NC4=O
IC50 [1]: > 10000 nM
IC50 [2]: > 10000 nM
IC50 [3]: 84 nM
IC50 [4]: 39 nM
IC50 [5]: > 200 nM
IC50 [7]: > 20000 nM

O=C1NC(=O)c2c1c1c(ccc3cc[nH]c31)c1c2c2ccccc2n1CCCO
IC50 [1]: 750 nM
IC50 [2]: 1070 nM
IC50 [3]: 66 nM
IC50 [4]: 12 nM
IC50 [5]: 8 nM
IC50 [7]: > 20000 nM

CN1CCN(CCCc2cccc3c2[nH]c2c4ccc5ccn(C)c5c4c4c(c32)C(=O)NC4=O)CC1
IC50 [1]: 1380 nM
IC50 [2]: 1480 nM
IC50 [3]: 52 nM
IC50 [5]: 1670 nM
IC50 [6]: 382 nM
IC50 [7]: 16600 nM

COc1ccc2c3c4c(c5c(ccc6ccn(C)c65)c3n(CCO)c2c1)C(=O)NC4=O
IC50 [1]: 4070 nM
IC50 [2]: 1320 nM
IC50 [3]: 47 nM
IC50 [4]: 24 nM
IC50 [5]: 101 nM
IC50 [7]: 1620 nM
